Target: T1, hyaluronidase type I-S from bovine testes (BTH; Hyal) (Bos taurus, UniProt Q2YDK3)
T1 construct: gene SPAM1; commercial unlabeled enzyme from bovine testes
T1 sequence (Q2YDK3 36-553): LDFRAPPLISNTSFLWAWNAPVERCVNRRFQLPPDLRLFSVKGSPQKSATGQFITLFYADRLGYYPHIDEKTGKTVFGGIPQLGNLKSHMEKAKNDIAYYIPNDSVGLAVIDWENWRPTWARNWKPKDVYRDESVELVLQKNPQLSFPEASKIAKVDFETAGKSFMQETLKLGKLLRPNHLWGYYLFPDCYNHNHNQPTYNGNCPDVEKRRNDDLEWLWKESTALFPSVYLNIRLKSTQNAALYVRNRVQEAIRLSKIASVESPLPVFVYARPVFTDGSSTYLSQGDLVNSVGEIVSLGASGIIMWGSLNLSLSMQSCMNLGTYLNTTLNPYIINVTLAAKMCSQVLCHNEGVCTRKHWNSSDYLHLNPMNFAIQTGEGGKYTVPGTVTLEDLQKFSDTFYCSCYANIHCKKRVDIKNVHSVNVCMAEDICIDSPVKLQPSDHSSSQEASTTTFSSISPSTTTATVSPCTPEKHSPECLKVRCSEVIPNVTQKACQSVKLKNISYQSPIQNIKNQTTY
Assay: CE-UV enzymatic assay of hyaluronic acid degradation; inhibition at […] without trehalose ([…] with […] trehalose)
Format: biochemical
Details: read-out: Inhibition at 1 mg/mL-Equation (1) / 0% Trehalose

inhibition at 1000 µg/mL: 25 ± 5%
Structure (SMILES): O=c1cc(-c2ccc(O)cc2)oc2cc(O[C@@H]3O[C@H](CO)[C@@H](O)[C@H](O)[C@H]3O)cc(O)c12 [apigenin-7-glucoside]
